Source: the supplement of paper PMC11616607

Key:
Assay in all cases: drug sensitivity score (DSS) from 5-point dose-response viability curve (DSS (area-under-curve based score)); higher = more sensitive (stronger growth inhibition or killing); extreme values may be limits of the assay
Conditions in all cases: exposure time: 72 h; concentration range: 5 concentrations over 10,000-fold range
CAOV3 = system: CAOV3
In short: (§1)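 Ovarian cancer and normal ovarian cell lines were tested in 384-well plates, with drugs dispensed acoustically (Echo 550) in DMSO or water at five concentrations covering a 10,000-fold range. After 1,500 cells per well were added, plates were incubated for 3 days at 37°C and 5% CO2, and viability was read by CellTiter-Glo luminescence on a PHERAstar FS. Breeze software gave a drug sensitivity score for each cell line and drug, where a higher score means greater sensitivity. A value of zero means no response.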

COV318 = system: COV318
In short: as §1

COV362 = system: COV362
In short: as §1

HOSE1C = system: HOSE1C
In short: as §1

HOSE2C = system: HOSE2C
In short: as §1

JHOS2 = system: JHOS2
In short: as §1

Kuramochi = system: Kuramochi
In short: as §1

OV90 = system: OV90
In short: as §1

OVCAR4 = system: OVCAR4
In short: as §1

OVCAR5 = system: OVCAR5
In short: as §1

OVCAR8 = system: OVCAR8
In short: as §1

Ovsaho = system: Ovsaho
In short: as §1

## NCCNc1ccc(NCCN)c2c1C(=O)c1ccncc1C2=O [Pixantrone]
CAOV3
  drug sensitivity score: 0
COV318
  drug sensitivity score: 0
COV362
  drug sensitivity score: 0
HOSE1C
  drug sensitivity score: 0
HOSE2C
  drug sensitivity score: 0
JHOS2
  drug sensitivity score: 0
Kuramochi
  drug sensitivity score: 0.1
OV90
  drug sensitivity score: 0.1
OVCAR4
  drug sensitivity score: 0
OVCAR5
  drug sensitivity score: 0
OVCAR8
  drug sensitivity score: 0.4
Ovsaho
  drug sensitivity score: 0.3

## N#Cc1ccc2[nH]c(O)c(-c3ccc(CN4CCOCC4)cn3)c2c1 [AZD-1080]
CAOV3
  drug sensitivity score: 0.9
COV318
  drug sensitivity score: 0
COV362
  drug sensitivity score: 0
HOSE1C
  drug sensitivity score: 0
HOSE2C
  drug sensitivity score: 0.3
JHOS2
  drug sensitivity score: 0
Kuramochi
  drug sensitivity score: 0
OV90
  drug sensitivity score: 0
OVCAR4
  drug sensitivity score: 0
OVCAR5
  drug sensitivity score: 0
OVCAR8
  drug sensitivity score: 0
Ovsaho
  drug sensitivity score: 0

## CN1CCC(CNc2ccc3ncc(-c4cccc(OC(F)(F)F)c4)n3n2)CC1 [SGI-1776]
CAOV3
  drug sensitivity score: 5.1
COV318
  drug sensitivity score: 4.7
COV362
  drug sensitivity score: 4.3
HOSE1C
  drug sensitivity score: 8
HOSE2C
  drug sensitivity score: 7.2
JHOS2
  drug sensitivity score: 5.2
Kuramochi
  drug sensitivity score: 5.1
OV90
  drug sensitivity score: 5.6
OVCAR4
  drug sensitivity score: 3.3
OVCAR5
  drug sensitivity score: 6.9
OVCAR8
  drug sensitivity score: 6
Ovsaho
  drug sensitivity score: 7.7

## C=CCN(/C=C1/C(=O)O[C@H](COC)[C@@]2(C)C1=C(O)C(=O)C1=C2[C@H](OC(C)=O)C[C@]2(C)C(=O)CC[C@@H]12)CC=C [Sonolisib]
CAOV3
  drug sensitivity score: 0
COV318
  drug sensitivity score: 0
COV362
  drug sensitivity score: 0
HOSE1C
  drug sensitivity score: 0
HOSE2C
  drug sensitivity score: 0.6
JHOS2
  drug sensitivity score: 0
Kuramochi
  drug sensitivity score: 0
OV90
  drug sensitivity score: 0
OVCAR4
  drug sensitivity score: 0
OVCAR5
  drug sensitivity score: 0
OVCAR8
  drug sensitivity score: 0
Ovsaho
  drug sensitivity score: 0

## C[C@]1(c2nc3c(C(N)=O)cccc3[nH]2)CCCN1 [Veliparib]
CAOV3
  drug sensitivity score: 0
COV318
  drug sensitivity score: 0
COV362
  drug sensitivity score: 0
HOSE1C
  drug sensitivity score: 0
HOSE2C
  drug sensitivity score: 0
JHOS2
  drug sensitivity score: 0
Kuramochi
  drug sensitivity score: 0
OV90
  drug sensitivity score: 0.7
OVCAR4
  drug sensitivity score: 0
OVCAR5
  drug sensitivity score: 1.3
OVCAR8
  drug sensitivity score: 0.2
Ovsaho
  drug sensitivity score: 0.4

## NC[C@@](O)(c1ccc(Cl)cc1)c1ccc(-c2cn[nH]c2)cc1
CAOV3
  drug sensitivity score: 0.5
COV318
  drug sensitivity score: 3.3
COV362
  drug sensitivity score: 0
HOSE1C
  drug sensitivity score: 8.6
HOSE2C
  drug sensitivity score: 6.1
JHOS2
  drug sensitivity score: 2.8
Kuramochi
  drug sensitivity score: 0.1
OV90
  drug sensitivity score: 0
OVCAR4
  drug sensitivity score: 1.1
OVCAR5
  drug sensitivity score: 0.7
OVCAR8
  drug sensitivity score: 1.1
Ovsaho
  drug sensitivity score: 0

## O=C(O)C1(C(=O)O)CCC1.[NH2-].[NH2-].[Pt+2] [Carboplatin]
CAOV3
  drug sensitivity score: 6.1
COV318
  drug sensitivity score: 5.5
COV362
  drug sensitivity score: 0
HOSE1C
  drug sensitivity score: 7.8
HOSE2C
  drug sensitivity score: 5
JHOS2
  drug sensitivity score: 3.1
Kuramochi
  drug sensitivity score: 4.9
OV90
  drug sensitivity score: 3.6
OVCAR4
  drug sensitivity score: 5.6
OVCAR5
  drug sensitivity score: 4.7
OVCAR8
  drug sensitivity score: 1.9
Ovsaho
  drug sensitivity score: 5.5

## Nc1ncnc2c1nc(N)n2[C@@H]1O[C@H](CO)[C@@H](O)[C@H]1O [8-amino-adenosine]
CAOV3
  drug sensitivity score: 22.6
COV318
  drug sensitivity score: 15.1
COV362
  drug sensitivity score: 20.4
HOSE1C
  drug sensitivity score: 4.1
HOSE2C
  drug sensitivity score: 4.9
JHOS2
  drug sensitivity score: 28.2
Kuramochi
  drug sensitivity score: 24.5
OV90
  drug sensitivity score: 20.1
OVCAR4
  drug sensitivity score: 19
OVCAR5
  drug sensitivity score: 23.5
OVCAR8
  drug sensitivity score: 20.5
Ovsaho
  drug sensitivity score: 26

## Cc1cc(-c2nc(-c3ccc(OC(F)(F)F)cc3)no2)nn1Cc1ccnc(N2CCN(C3CC3)CC2)c1 [BAY 87-2243]
CAOV3
  drug sensitivity score: 8.4
COV318
  drug sensitivity score: 2.7
COV362
  drug sensitivity score: 0
HOSE1C
  drug sensitivity score: 0
HOSE2C
  drug sensitivity score: 0
JHOS2
  drug sensitivity score: 0
Kuramochi
  drug sensitivity score: 2.7
OV90
  drug sensitivity score: 23.3
OVCAR4
  drug sensitivity score: 4.7
OVCAR5
  drug sensitivity score: 4.8
OVCAR8
  drug sensitivity score: 28.8
Ovsaho
  drug sensitivity score: 1.6

## CN(C)c1cc2c(cc1Sc1nc3c(N)nccc3n1CCNCC(C)(C)C)OCO2 [CUDC-305]
CAOV3
  drug sensitivity score: 14.5
COV318
  drug sensitivity score: 4
COV362
  drug sensitivity score: 8.8
HOSE1C
  drug sensitivity score: 11.5
HOSE2C
  drug sensitivity score: 15.3
JHOS2
  drug sensitivity score: 10.8
Kuramochi
  drug sensitivity score: 5.9
OV90
  drug sensitivity score: 14.5
OVCAR4
  drug sensitivity score: 8.5
OVCAR5
  drug sensitivity score: 10.8
OVCAR8
  drug sensitivity score: 16.4
Ovsaho
  drug sensitivity score: 3

## CN(C(=O)c1ccc(F)cc1C(F)(F)F)C1CCN(c2nnc(-c3ccnn3C)c3ccccc23)CC1 [Taladegib]
CAOV3
  drug sensitivity score: 0
COV318
  drug sensitivity score: 0.1
COV362
  drug sensitivity score: 0
HOSE1C
  drug sensitivity score: 0
HOSE2C
  drug sensitivity score: 0
JHOS2
  drug sensitivity score: 0
Kuramochi
  drug sensitivity score: 0
OV90
  drug sensitivity score: 0
OVCAR4
  drug sensitivity score: 0
OVCAR5
  drug sensitivity score: 0.2
OVCAR8
  drug sensitivity score: 0
Ovsaho
  drug sensitivity score: 0

## Nc1nc2[nH]cnc2c(=S)[nH]1 [Thioguanine]
CAOV3
  drug sensitivity score: 11.9
COV318
  drug sensitivity score: 0.7
COV362
  drug sensitivity score: 9.4
HOSE1C
  drug sensitivity score: 3.4
HOSE2C
  drug sensitivity score: 2.4
JHOS2
  drug sensitivity score: 2.3
Kuramochi
  drug sensitivity score: 7.2
OV90
  drug sensitivity score: 6.3
OVCAR4
  drug sensitivity score: 9.9
OVCAR5
  drug sensitivity score: 13.4
OVCAR8
  drug sensitivity score: 12.7
Ovsaho
  drug sensitivity score: 8

## CN1CCN(CCOc2cc(OC3CCOCC3)c3c(Nc4c(Cl)ccc5c4OCO5)ncnc3c2)CC1 [Saracatinib]
CAOV3
  drug sensitivity score: 8.2
COV318
  drug sensitivity score: 0.4
COV362
  drug sensitivity score: 5.6
HOSE1C
  drug sensitivity score: 2
HOSE2C
  drug sensitivity score: 5
JHOS2
  drug sensitivity score: 3.1
Kuramochi
  drug sensitivity score: 9.7
OV90
  drug sensitivity score: 5
OVCAR4
  drug sensitivity score: 3.8
OVCAR5
  drug sensitivity score: 9.2
OVCAR8
  drug sensitivity score: 5.1
Ovsaho
  drug sensitivity score: 7

## CC1=C(/C=C/C(C)=C/C=C/C(C)=C/C(=O)O)C(C)(C)CCC1 [Tretinoin]
CAOV3
  drug sensitivity score: 0
COV318
  drug sensitivity score: 0
COV362
  drug sensitivity score: 0
HOSE1C
  drug sensitivity score: 0
HOSE2C
  drug sensitivity score: 5.7
JHOS2
  drug sensitivity score: 0.5
Kuramochi
  drug sensitivity score: 0
OV90
  drug sensitivity score: 0
OVCAR4
  drug sensitivity score: 0
OVCAR5
  drug sensitivity score: 0
OVCAR8
  drug sensitivity score: 0
Ovsaho
  drug sensitivity score: 0

## O=C(O)CC1CC(c2ccccc2)=NO1 (configuration not stated) [VGX-1027]
CAOV3
  drug sensitivity score: 0
COV318
  drug sensitivity score: 0
COV362
  drug sensitivity score: 0
HOSE1C
  drug sensitivity score: 0
HOSE2C
  drug sensitivity score: 0
JHOS2
  drug sensitivity score: 0
Kuramochi
  drug sensitivity score: 0
OV90
  drug sensitivity score: 0
OVCAR4
  drug sensitivity score: 0
OVCAR5
  drug sensitivity score: 0
OVCAR8
  drug sensitivity score: 0
Ovsaho
  drug sensitivity score: 0

## CCC(C)(C)C(=O)O[C@H]1C[C@@H](C)C=C2C=C[C@H](C)[C@H](CC[C@@H]3C[C@@H](O)CC(=O)O3)[C@H]21 [Simvastatin]
CAOV3
  drug sensitivity score: 0.1
COV318
  drug sensitivity score: 0
COV362
  drug sensitivity score: 0.4
HOSE1C
  drug sensitivity score: 8.7
HOSE2C
  drug sensitivity score: 8.8
JHOS2
  drug sensitivity score: 0.2
Kuramochi
  drug sensitivity score: 1.3
OV90
  drug sensitivity score: 1.5
OVCAR4
  drug sensitivity score: 0.7
OVCAR5
  drug sensitivity score: 0
OVCAR8
  drug sensitivity score: 2.9
Ovsaho
  drug sensitivity score: 3.5
